# Experimental data: patent US9469668B2, “Magnetic substance” (IHI CORPORATION, priority 2013, dated 2016)
# Columns and labels:
# [1] = Saturation magnetization measurement (magnetic property evaluation device MPMS7); type: physicochemical
# Protocol: The measurement was conducted based on a magnetic property evaluation device MPMS7 manufactured by Kantum.
# [2] = Particle diameter of single crystal by transmission electron microscope; type: physicochemical; conditions: single crystal of the salen complex having the highest ferromagnetic property; TEM, 140 samples
# Protocol: A used device, conditions, and so on are as follows. Device: transmission electron microscope (H-7100FA manufactured by Hitachi) Conditions: acceleration voltage 100 kV Sample adjustment: dispersion method (after the salen complex was ground with a mortar, pure water was added to the ground salen complex, which was then dispersed in a grid by TEM) Grain size distribution measurement software: Image-Pro plus (Media cybermetrics, MD, U.S.A.) Measured target: traced images of the iron-salen complex in TEM photographs Number of samples: 140
smiles,measurement,setting,value
"Oc1ccccc1C=NCCN=Cc1ccccc1O.[Fe+2] [iron-salen complex, N,N′-bis(salicylidene)ethylenediamine iron(II)]",saturation magnetization,[1]; crystals having the highest magnetic property among 5-6 iron-salen complex preparations,1.25 emu/g
same,saturation magnetization,[1]; crystals having the lowest magnetic property among those complexes,0.02 emu/g
same,average particle diameter,[2],450 nm
